The nature of data set [1]: MTT cytotoxicity / cell viability in CHIKV replicon cells. The note with it: hamster, BHK-21-GLuc-nsP-CHIKV-99659 cells (CHIKV replicon cells). Background: Replicon systems follow genome replication, usually without infectious particles.
The subject of the next data set is CHIKV replicon. Kind of data set: CHIKV replicon-based assay (GLuc activity in BHK-21-GLuc-nsP-CHIKV-99659 cells). The note with it: for inhibition at 10 µM: read-out: GLuc Inhibition; for EC50: 48 h, read-out: EC50 (concentration required to inhibit 50% of the GLuc activity); for SI (CC50/EC50): replicon-based assay.
The conditions of data set [2]: cited from earlier work.
In a further data set the test system is CHIKV-nanoluc. Kind of data set: Viral infection assay with CHIKV-nanoluc in BHK-21 cells. Type of data set: cell-based, Chikungunya virus. As to conditions: MOI 0.1, 16 h.p.i., read-out: EC50 (CHIKV-nanoluc replication).
Data set [3] can be described thus: Cell viability in the viral infection assay. Type of data set: cell-based. The note with it: hamster, BHK-21 cells infected with CHIKV-nanoluc.
Data set [4] has as its system BHK-21-GLuc-nsP-CHIKV-99659 cells. The experiment in a line: MTT cytotoxicity / cell viability in CHIKV replicon cells. The note with it: CHIKV replicon cells, 48 h, MTT assay; for CC50: read-out: CC50 (50% cytotoxicity).
Another data set has as its system BHK-21 cells. Kind of data set: Cell viability in the viral infection assay. Type of data set: cell-based.
In data set [5] the test system is replication-transcription complex (RTC). As to conditions: cited from earlier work.
The mark [6] stands for this setting: CHIKV replicon cells, GLuc signal from supernatant.

Read-outs that look alike come from different tables or passages of the source. Bounds are passed on as bounds.

As a reminder, the viability is a per cent measure of how many cells are alive, often set against a control. A lower viability goes with more harm to the cells. For orientation: inhibition means the drop in the measured response relative to a control, in per cent. For `C[C@@H](c1ncncc1F)[C@](O)(Cn1cncn1)c1ccc(F)cc1F` [Voriconazole], in data set [1], the viability at 10 µM is 91.8%. In addition, in the data set with CHIKV replicon (Chikungunya virus), the inhibition at 10 µM came out at 13.9%.

`Clc1ccc(COC(Cn2ccnc2)c2ccc(Cl)cc2Cl)c(Cl)c1` (stereo not shown) [Miconazole] came in with a viability at 10 µM in data set [1] of 100%. Moreover, in the data set on CHIKV replicon (Chikungunya virus), the inhibition at 10 µM was 27.8%.

With `CC[C@@H]([C@H](C)O)n1ncn(-c2ccc(N3CCN(c4ccc(OC[C@@H]5CO[C@@](Cn6cncn6)(c6ccc(F)cc6F)C5)cc4)CC3)cc2)c1=O` [Posaconazole], the viability at 10 µM in data set [1] was found to be 100%. For the same compound, the inhibition at 10 µM with CHIKV replicon (Chikungunya virus) was determined as 11.8%. The “no toxic effects up to concentration” value in data set [2] is above 100 µM.

With `Clc1ccc(C(Cn2ccnc2)OCc2ccsc2Cl)c(Cl)c1` (stereo not shown) [Tioconazole], in data set [1], the viability at 10 µM worked out at 68.4%. Moreover, in the data set on CHIKV replicon (Chikungunya virus), the inhibition at 10 µM worked out at 54.8%.

What is called CC50 is the concentration giving 50% cytotoxicity. The compound `CC[C@@]1(O)C(=O)OCc2c1cc1n(c2=O)Cc2cc3c([N+](=O)[O-])cccc3nc2-1` [Rubitecan, rubitecan] displayed a CC50 at 48 h in data set [1] above 100 µM. In addition, the results for the EC50 in the data set with CHIKV replicon (Chikungunya virus) and with CHIKV-nanoluc (Chikungunya virus) were 140 ± 30 nM and 3.6 ± 0.8 µM, respectively. For the same compound, in the data set with CHIKV replicon, the “SI (CC50/EC50)” value is on record as above 714. In data set [3], the CC50 at 16 h is above 100 µM.

With `O=C(N[C@@H]1CCCc2c1[nH]c1ccc(Cl)cc21)c1ccccn1` [GSK-983], the “CC50 (50% cytotoxicity)” value in data set [4] is “moderate toxicities”. Moreover, the half-maximal cytotoxic concentration (CC50) in data set [4] is 10 ± 0.07 µM; with BHK-21 cells, above 100 µM. The EC50 in the data set with CHIKV replicon (setting [6]) is 330 ± 200 nM; with CHIKV-nanoluc it was 13.8 ± 3.3 µM. The “SI (CC50/EC50)” value in the data set on CHIKV replicon is listed as 30.

In data set [1], `OC(Cn1cncn1)(Cn1cncn1)c1ccc(F)cc1F` [Fluconazole] gave a viability at 10 µM of 94.3%. In addition, the inhibition at 10 µM in the data set with CHIKV replicon (Chikungunya virus) was found to be 0%.

In turn, `C[C@@H](c1nc(-c2ccc(C#N)cc2)cs1)[C@](O)(Cn1cncn1)c1ccc(F)cc1F` [Ravuconazole] came in with a viability at 10 µM in data set [1] of 100%. Moreover, the inhibition at 10 µM in the data set with CHIKV replicon (Chikungunya virus) was found to be 25.4%.

For `Cc1ccc(C(=O)Nc2ccc(S(=O)(=O)O)c3cc(S(=O)(=O)O)cc(S(=O)(=O)O)c23)cc1NC(=O)c1cccc(NC(=O)Nc2cccc(C(=O)Nc3cc(C(=O)Nc4ccc(S(=O)(=O)O)c5cc(S(=O)(=O)O)cc(S(=O)(=O)O)c45)ccc3C)c2)c1` [suramin], in data set [1], the CC50 at 48 h is above 50 µM. Also, the EC50 is 3200 ± 300 nM in the data set with CHIKV replicon (Chikungunya virus) and 6.7 µM in data set [5].

On to `C[C@@H](c1nc(-c2ccc(C#N)cc2)cs1)[C@](O)(Cn1cncn1)c1cc(F)ccc1F` [Isavuconazole], for which the viability at 10 µM in data set [1] was found to be 100%. The inhibition at 10 µM in the data set with CHIKV replicon (Chikungunya virus) came to 28.6%.

In data set [1], `Clc1ccc(COC(Cn2ccnc2)c2ccc(Cl)cc2Cl)cc1` (stereo not shown) [Econazole] returned a viability at 10 µM of 81.8%. The inhibition at 10 µM with CHIKV replicon (Chikungunya virus) was determined as 43.8%.

As for `CCC(C)n1ncn(-c2ccc(N3CCN(c4ccc(OCC5COC(Cn6cncn6)(c6ccc(Cl)cc6Cl)O5)cc4)CC3)cc2)c1=O` (stereo not shown) [Itraconazole, itraconazole], the CC50 at 48 h in data set [1] is above 100 µM. For the same compound, the figures for the EC50 in the data set with CHIKV replicon (Chikungunya virus) and in the data set on CHIKV-nanoluc (Chikungunya virus) were 320 ± 200 nM and 0.34 ± 0.02 µM, respectively. Besides, the “SI (CC50/EC50)” value with CHIKV replicon is on record as above 312. In data set [3], this compound yielded a CC50 at 16 h above 100 µM.

In data set [1], `Clc1ccccc1C(c1ccccc1)(c1ccccc1)n1ccnc1` [Clotrimazole] yielded a viability at 10 µM of 70.2%. Moreover, the inhibition at 10 µM with CHIKV replicon (Chikungunya virus) stood at 70.7%.

Regarding `C[C@H](C(N)=O)N1CCCC[C@@H]1c1ccc(OCc2cccc(F)c2)cc1` [MMV676270], the “CC50 (50% cytotoxicity)” value in data set [4] is “moderate toxicities”. Also, the figures for the CC50 (in data set [4]; in the data set on BHK-21 cells) were 52 ± 20 µM and 59.5 µM, respectively. Moreover, the EC50 with CHIKV replicon (setting [6]) stood at 5200 ± 1000 nM; in the data set on CHIKV-nanoluc it was 18.4 ± 5 µM. Moreover, the “SI (CC50/EC50)” value in the data set on CHIKV replicon turned out to be 10.

In data set [1], `CC(=O)N1CCN(c2ccc(OCC3COC(Cn4ccnc4)(c4ccc(Cl)cc4Cl)O3)cc2)CC1` (stereo not shown) [Ketoconazole] came in with a viability at 10 µM of 100%. Also, the inhibition at 10 µM with CHIKV replicon (Chikungunya virus) was determined as 0%.

The record behind these values is paper PMC9317443 (Viruses, 2022).
